The values below come from patent US20160311791A1, “NOVEL TRICYCLIC CALCIUM SENSING RECEPTOR ANTOGONISTS FOR THE TREATMENT OF OSTEOPOSOSIS” (MERCK SHARP & DOHME CORP., priority 2013, published 2016).

Data set [1] can be described thus: Pharmacokinetic evaluation in rats. Type of data set: in vivo, rat. Conditions: for clearance / Cmax / bioavailability / half-life: rat, plasma, dose and route not given; for clearance: read-out: Clp (plasma clearance); for Cmax: read-out: Cmax (maximum observed plasma concentration); for bioavailability: read-out: F % (bioavailability); for half-life: read-out: t1/2 (plasma half-life) (converted).

The next data set concerns the target T1, human CaSR (Homo sapiens, UniProt P41180).
T1 sequence (P41180 20-1078): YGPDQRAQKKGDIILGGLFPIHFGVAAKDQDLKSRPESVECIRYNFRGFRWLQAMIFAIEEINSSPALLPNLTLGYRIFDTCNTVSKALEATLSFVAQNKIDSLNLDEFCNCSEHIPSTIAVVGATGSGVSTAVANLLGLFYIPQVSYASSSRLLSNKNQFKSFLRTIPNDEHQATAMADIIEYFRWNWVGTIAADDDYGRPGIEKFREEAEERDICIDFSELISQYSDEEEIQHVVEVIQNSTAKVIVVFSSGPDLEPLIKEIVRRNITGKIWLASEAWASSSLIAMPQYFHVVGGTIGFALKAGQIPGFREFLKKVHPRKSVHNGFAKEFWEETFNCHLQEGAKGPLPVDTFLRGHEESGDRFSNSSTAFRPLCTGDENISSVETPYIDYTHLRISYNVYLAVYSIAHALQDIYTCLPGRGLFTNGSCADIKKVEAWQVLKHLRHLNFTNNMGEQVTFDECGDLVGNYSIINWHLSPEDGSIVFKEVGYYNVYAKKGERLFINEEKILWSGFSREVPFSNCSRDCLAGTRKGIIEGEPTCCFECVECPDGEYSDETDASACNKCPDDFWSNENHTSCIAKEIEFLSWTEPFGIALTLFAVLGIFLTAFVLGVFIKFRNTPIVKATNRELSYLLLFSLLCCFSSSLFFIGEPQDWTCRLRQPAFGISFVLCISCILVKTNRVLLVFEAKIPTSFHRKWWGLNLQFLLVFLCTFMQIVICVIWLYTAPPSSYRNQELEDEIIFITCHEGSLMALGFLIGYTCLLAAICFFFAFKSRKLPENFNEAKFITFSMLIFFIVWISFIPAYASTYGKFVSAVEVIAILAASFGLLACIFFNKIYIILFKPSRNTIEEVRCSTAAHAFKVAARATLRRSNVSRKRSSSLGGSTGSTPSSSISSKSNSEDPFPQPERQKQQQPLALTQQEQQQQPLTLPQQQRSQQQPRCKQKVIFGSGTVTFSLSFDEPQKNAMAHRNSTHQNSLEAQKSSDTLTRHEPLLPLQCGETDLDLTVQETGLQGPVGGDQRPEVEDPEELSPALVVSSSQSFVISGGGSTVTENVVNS
Description: CaSR binding assay (radioligand, HEK293 membranes). More on the design: expressed in transfected cells; host or cells: HEK293 cell membranes. Conditions: for Ki: membranes of HEK293 cells expressing human CaSR, radio-labeled EXAMPLE 25; for IC50: read-out: IC50s (high affinity for the human calcium sensing receptor and potent antagonist activity). The method, then:
Procedures for CaSR Binding Assay
Membrane preparations from HEK293 cells expressing the human CaSR were generated. The cells were cultured and then washed twice with 1×PBS. The cells were dissociated by adding 4 ml pre-warmed 0.25% Trypsin-EDTA, and by incubating the flask at RT for 3 minutes. 10 ml media was dispensed over the cell layer surface, and the cells were harvested into a centrifuge tube. The cells were centrifuged at 200×g for 10 minutes. The cell pellet was suspended in 30 ml of membrane preparation buffer and then homogenized on ice twice at 16000 rpm for 10 seconds. Following homogenization, the membrane was collected by centrifuge at 40000×g for 30 minutes at 4° C., washed twice with 30 ml membrane preparation buffer, and centrifuged again at 40000×g for 10 minutes. The membrane pellet was suspended in 30 ml membrane preparation buffer (50 mM Tris, pH7.0, 10 mM MgCl, Proteinase inhibitor (Roche, REF 04693116001), and then homogenized on ice once at 16000 rpm for 10 seconds. The total protein concentration was measured using a BCA kit. The membrane protein concentration was adjusted to 2.4 mg/ml and then diluted with binding buffer (10 mM HEPES, pH7.4, 130 mM NaCl, 0.4 mM CaCl2, 5 mM MgCl2, 1 mM EGTA, 10 mM glucose, 0.1% BSA) to 0.33 μg/μl. The final amount in the binding assay was 20 μg/well. Test compound was serially diluted manually by using BIOHIT multi-channel pipettor in 100% DMSO (10 point, 3-fold dilution of each compound from 5.0 μM in 100% DMSO). 4 μl of serially diluted compound was manually transferred into a second assay microplate that contained 196 μl of binding assay buffer to create the intermediate dilution plate. For background, 20 μl of assay buffer was added to each control well. […] The binding reaction used a 100 μl reaction volume consisting of 10 μl of test compound, 30 μl of diluted radio-labelled compound, and 60 μl of membrane solution (0.33 μg/μl). The reaction mixture was incubated at room temperature for one hour. The Grade GF/C filter plates were presoaked in 0.3% PEI (protect from light) for 60 minutes at room temperature. The plate was then washed three times with ice-cold wash buffer (25 mM Tris-HCl, PH7.4, 130 mM NaCl, 5 mM MgCl2, 0.4 mM CaCl2, 0.1% BSA) prior to filtration of the binding samples. The binding reaction was terminated by rapid filtration of 100 μl binding mixture through the GF/C plate. Plates were then washed 6 times with ice-cold wash buffer. Filter plates were dried with a hair dryer for 20 minutes. 60 μl/well MICROSCINT 20 (a cocktail for microplates) was added to the bottom of sealed filters, then the filters were sealed at the top with tape. Bound radioactivity was counted in a TOPCOUNT scintillation counter. Exemplary compounds bind in the 1-500 nM range.

The next data set deals with PTH release. Description: In vivo pharmacodynamic effects: PTH (Rat Intact PTH 1-84 ELISA). Conditions: oral gavage. Here is the method:
Procedures for In Vivo Pharmacodynamic Effects
The objective of these studies was to assess the effect of compounds on stimulating PTH release and increasing calcium secretion in the rat. Male Sprague-Dawley rats (3-4 months old) were equipped with jugular vein cannulae (JVC) by surgical procedure. The rats were given the compound by oral gavage. Blood was sampled from the JVC at 15 minutes, 30 minutes, 60 minutes, 120 minutes, 240 minutes, 420 minutes, and 24 hrs post compound administration. Plasma was separated and used for a PTH ELISA assay and a calcium concentration assay. After the last blood sampling, the rats were sacrificed under anesthesia by inhalation of CO2. All procedures were conducted in compliance with the Animal Welfare Act, the Guide for the Care and Use of Laboratory Animals and the recommendations of the AVMA Panel on Euthanasia.
Rat plasma samples were used for measuring serum PTH levels: The Rat Intact PTH 1-84 ELISA kit (Immutopics Cat#60-2500) was used according to the manufacturer's instructions. Total serum calcium determination was made using a calcium arsenazo III reagent (Fisher Scientific Cat # Pointe Scientific Calcium (Arsenazo III) Reagents; Mfr. No.: C7529-500; Qty.: 500 mL. Mfr. No.: C7529-500, Part #23666172) according to the manufacturer's instructions. For these experiments, 2 μl of sample was added to 198 μl of reagent, mixed, and read at 650 nm.

On to `CSc1ccc(CC(C)(C)NC[C@@H](O)CO[C@H](C)c2ccc(C)c3c2C2[C@H](O3)[C@H]2C(=O)O)cc1F` (stereo partly drawn) [Example 8-24], for which, in data set [1], the “half-lives in rats” value is “short half-lives”, the “tmax” value was “less than an hour”, the clearance is 40 mL/min/kg and the Cmax came out at 160 nM. In addition, in data set [1], the bioavailability is 7% and the half-life is 1.8 h. Further, at human CaSR, the affinity corresponds to a Ki of 29 nM and the IC50 stood at 29 nM. The “Maximum Change in PTH (fold)” value in the data set on PTH release (at 30 mpk) is reported as 4 (at fold.
In the case of `C[C@@H](OC[C@H](O)CNC(C)(C)Cc1ccc2ccccc2c1)c1cccc2c1[C@@H]1[C@H](O2)[C@H]1C(=O)O` [Example 5-1], in data set [1], the “half-lives in rats” value is “short half-lives”, the “tmax” value is on record as “less than an hour”, the clearance stood at 52.5 mL/min/kg and the Cmax turned out to be 690 nM. For the same molecule, in data set [1], the bioavailability was 7% and the half-life is 1.3 h. In addition, at human CaSR, the Ki was determined as 7 nM and the IC50 stood at 7 nM. Further, the “Maximum Change in PTH (fold)” value in the data set on PTH release (at 10 mpk) is listed as 8 (at fold.
On to `C[C@@H](OC[C@H](O)CNC(C)(C)Cc1ccc2ccccc2c1)c1cccc2c1O[C@@H]1[C@@H](C(=O)O)[C@H]21` [Example 1-1], for which, in data set [1], the “half-lives in rats” value was “short half-lives”, the “tmax” value was “less than an hour”, the clearance was determined as 11 mL/min/kg and the Cmax worked out at 2400 nM. Besides, in data set [1], the bioavailability is 24% and the half-life is 1.7 h. On human CaSR, the Ki came out at 18 nM and the IC50 is 18 nM. Further, in the data set with PTH release (at 30 mpk), the “Maximum Change in PTH (fold)” value is recorded as 5.8 (at fold.
